Bounds are passed on as bounds.

3 compounds from ChEMBL document CHEMBL6109097, “Structure-based design of novel 2,4,5-trisubstituted pyrimidine derivatives as potent HIV-1 NNRTIs by exploiting the tolerant regions in NNTRIs binding pocket” (Eur J Med Chem, 2025) can be followed below.

Series [1] relates to Human immunodeficiency virus 1. Nature of the series: Antiviral activity against NNRTI-resistant HIV-1 harboring E138K mutant infected in human MT4 cells assessed as protection against virus-induced cytopathic effect incubated for 5 days by MTT assay. Format: functional, organism-based. The settings on record: Human immunodeficiency virus 1, MT4, 120 h. On the technique in general: Cytopathic effects are the visible damage that an infection or toxin causes in cultured cells.

Series [2] in a line: Cytotoxicity against human MT4 cells assessed as reduction in cell viability incubated for 5 days by MTT assay. It is filed as toxicity, cell-based. The settings on record: time 5 day.
The subject of series [3] is Human immunodeficiency virus 1. The series is described as follows: Antiviral activity against NNRTI-resistant HIV-1 harboring L100I mutant infected in human MT4 cells assessed as protection against virus-induced cytopathic effect incubated for 5 days by MTT assay. It is filed as functional, organism-based. Conditions: Human immunodeficiency virus 1, MT4, 120 h.
In series [4] the test system is Human immunodeficiency virus 1. The series is described as follows: Antiviral activity against NNRTI-resistant HIV-1 harboring F227L/V106A double mutant infected in human MT4 cells assessed as protection against virus-induced cytopathic effect incubated for 5 days by MTT assay. Format: functional, organism-based. The settings on record: Human immunodeficiency virus 1, MT4, 120 h.

The subject of series [5] is Human immunodeficiency virus 1. The series is described as follows: Antiviral activity against NNRTI-resistant HIV-1 harboring Y188L mutant infected in human MT4 cells assessed as protection against virus-induced cytopathic effect incubated for 5 days by MTT assay. It is filed as functional, organism-based. Conditions: Human immunodeficiency virus 1, MT4, 120 h.
For series [6], the system named is Human immunodeficiency virus 1. The series is described as follows: Antiviral activity against NNRTI-resistant HIV-1 harboring Y181C mutant infected in human MT4 cells assessed as protection against virus-induced cytopathic effect incubated for 5 days by MTT assay. It is filed as functional, organism-based. Conditions: Human immunodeficiency virus 1, MT4, 120 h.

The target of series [7] is Human immunodeficiency virus type 1 reverse transcriptase (Human immunodeficiency virus 1, UniProt Q72547). Nature of the series: Inhibition of wild type HIV-1 reverse transcriptase assessed as reduction in biotin-dUTP incorporation in cDNA preincubated with compound for 1 hr in presence of biotin-labeled dNTPs by ELISA. On the technique in general: In an ELISA, binding on a coated surface is turned into a signal by an enzyme label.

Series [8] concerns Human immunodeficiency virus 1. The series is described as follows: Antiviral activity against NNRTI-resistant HIV-1 harboring K103N mutant infected in human MT4 cells assessed as protection against virus-induced cytopathic effect incubated for 5 days by MTT assay. It is filed as functional, organism-based. Conditions: Human immunodeficiency virus 1, MT4, 120 h.
Series [9] has as its system Human immunodeficiency virus 1. The series is described as follows: Antiviral activity against NNRTI-resistant HIV-1 harboring RES056 mutant infected in human MT4 cells assessed as protection against virus-induced cytopathic effect incubated for 5 days by MTT assay. It is filed as functional, organism-based. Conditions: Human immunodeficiency virus 1, MT4, 120 h.
Series [10] can be described thus: Selectivity index, ratio of CC50 for cytotoxicity against human MT4 cells assessed as reduction in cell viability to EC50 for antiviral activity against human MT4 cells assessed as protection against virus-induced cytopathic effect. It is filed as toxicity, cell-based. Conditions: read-out: Ratio CC50/EC50.
The test system of series [11] is Human immunodeficiency virus 1. Nature of the series: Antiviral activity against wild type HIV-1 IIIB infected in human MT4 cells assessed as protection against virus-induced cytopathic effect incubated for 5 days by MTT assay. It is filed as functional, organism-based. Conditions: Human immunodeficiency virus 1, IIIB, MT4, 120 h.
Series [12] concerns Human immunodeficiency virus 1. The series is described as follows: Potency index, ratio of efavirenz EC50 to test compound EC50 for antiviral activity against NNRTI-resistant HIV-1 harboring L100I mutant infected in human MT4 cells assessed as protection against virus-induced cytopathic effect incubated for 5 days by MTT assay. It is filed as functional. The settings on record: time 5 day.

The test system of series [13] is Human immunodeficiency virus 1. Nature of the series: Potency index, ratio of efavirenz EC50 to test compound EC50 for antiviral activity against NNRTI-resistant HIV-1 harboring F227L/V106A double mutant infected in human MT4 cells assessed as protection against virus-induced cytopathic effect incubated for 5 days by MTT assay. Conditions: time 5 day. It is filed as functional.

In series [14] the test system is Human immunodeficiency virus 1. Nature of the series: Potency index, ratio of efavirenz EC50 to test compound EC50 for antiviral activity against NNRTI-resistant HIV-1 harboring K103N mutant infected in human MT4 cells assessed as protection against virus-induced cytopathic effect incubated for 5 days by MTT assay. Format: functional. The settings on record: time 5 day.

As a reminder, the EC50 is the concentration needed to bring the measured effect to its halfway point. What is called CC50 is the concentration giving 50% cytotoxicity. For orientation: IC50 means the concentration needed to halve the response being measured. In the case of `Cc1cc(/C=C/C#N)cc(C)c1Oc1nc(Nc2ccc(N3CCS(=O)(=O)CC3)c(F)c2)ncc1-c1cnc(F)nc1`, the EC50 in series [1] worked out at 55 nM; in series [3], 51 nM; in series [4], 210 nM; in series [5], 6500 nM; in [6], 120 nM; in [8], 13 nM. The results for the EC50 in [9] and in series [11] were 1590 nM and 13 nM, respectively. Moreover, the CC50 at 120 h in series [2] was 28800 nM. Further, the IC50 in [7] turned out to be 350 nM. Also, the selectivity ratio in [10] amounted to 2270.

Take `Cc1cc(/C=C/C#N)cc(C)c1Oc1nc(Nc2ccc(N3CCN(S(C)(=O)=O)CC3)c(C#N)c2)ncc1-c1ccc(N)nc1`: the EC50 in series [1] is 30 nM; in [3], 9.4 nM; in series [4], 30 nM; in series [5] it was 250 nM; in series [6], 34 nM; in series [8] it was 6.2 nM. The EC50 in [9] is 210 nM; in series [11] it was 6.4 nM. For the same compound, the CC50 at 120 h in series [2] turned out to be 161000 nM. Also, the results for the “Ratio EC50” value in series [12], in series [13] and in [14] were 3.7, 7 and 12.6, respectively. Also, the IC50 in series [7] was found to be 410 nM. For the same compound, the selectivity ratio in series [10] stood at 25300.

`Cc1cc(/C=C/C#N)cc(C)c1Oc1nc(Nc2ccc(N3CCS(=O)(=O)CC3)c(F)c2)ncc1-c1cncnc1`: the EC50 in series [1] was determined as 53 nM; in [3] it was 90 nM; in series [4], 280 nM; in [5] it was 1270 nM; in [6], 170 nM; in series [8], 6.7 nM. The values for the EC50 in series [9] and in series [11] were 1350 nM and 5.4 nM, respectively. For the same compound, the cytotoxic concentration (CC50) at 120 h in series [2] is > 219000 nM. Moreover, in series [7], the IC50 turned out to be 200 nM. The selectivity ratio in [10] is > 40500.
